Columns and labels:
Format in all cases: in vivo
[1] = test system: barnyardgrass (Echinochloa crus-galli); assay: Test B flooded paddy test; settings: Echinochloa crus-galli, 250 g ai/ha, Flood; 0 to 100 scale where 0 is no effect and 100 is complete control; read-out: Barnyardgrass plant response rating
In short: (§1)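 Plants at 2-leaf stage flooded to 3 cm above soil, with compounds applied directly to paddy water and that depth maintained. Plants kept in greenhouse 13–15 d. Visual rating versus controls on a 0 (no effect) to 100 (complete control) scale.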

[2] = test system: sedge, umbrella (small-flower umbrella sedge, Cyperus difformis); assay: Test B flooded paddy test; settings: Cyperus difformis, 250 g ai/ha, Flood; 0 to 100 scale where 0 is no effect and 100 is complete control; read-out: Sedge, Umbrella plant response rating
In short: as §1

rice (Oryra sativa) = assay: Test B flooded paddy test; settings: Oryza sativa, 250 g ai/ha, Flood; 0 to 100 scale where 0 is no effect and 100 is complete control; read-out: Rice plant response rating
In short: as §1

[3] = test system: ducksalad (Heteranthera limosa); assay: Test B flooded paddy test; settings: Heteranthera limosa, 250 g ai/ha, Flood; 0 to 100 scale where 0 is no effect and 100 is complete control; read-out: Ducksalad plant response rating
In short: as §1

[4] = test system: barnyardgrass (Echinochloa crus-galli); assay: Test A preemergence; settings: Echinochloa crus-galli, pre-emergence, 240 h, Preemergence
In short: (§2)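 Compounds were formulated in a non-phytotoxic solvent mixture with surfactant and applied as a preemergence directed soil spray after seeding, or sprayed postemergence over plants 2 to 10 cm tall at the one- to two-leaf stage. Evaluation after about 10 d compared treated with untreated controls, using a scale from 0 (no effect) to 100 (complete control).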

[5] = test system: giant foxtail (Setaria faberii); assay: Test A preemergence; settings: Setaria faberi, pre-emergence, 240 h, Preemergence
In short: as §2

Kochia (Kochia scoparia) [6] = assay: Test A preemergence; settings: Bassia scoparia, pre-emergence, 240 h, 0 to 100 scale where 0 is no effect and 100 is complete control, read-out: Kochia plant response rating
In short: as §2

[7] = test system: pigweed (Amaranthus retroflexus); assay: Test A preemergence; settings: Amaranthus retroflexus, pre-emergence, 240 h, 0 to 100 scale where 0 is no effect and 100 is complete control, read-out: Pigweed plant response rating
[8] = test system: ragweed (common ragweed, Ambrosia elatior); assay: Test A preemergence; settings: Ambrosia artemisiifolia, pre-emergence, 240 h, 0 to 100 scale where 0 is no effect and 100 is complete control, read-out: Ragweed plant response rating
In short: as §2

[9] = test system: ryegrass, Italian (Italian ryegrass, Lolium multiflorum); assay: Test A preemergence; settings: Lolium multiflorum, pre-emergence, 240 h, 0 to 100 scale where 0 is no effect and 100 is complete control, read-out: Ryegrass, Italian plant response rating
In short: as §2

[10] = test system: barnyardgrass (Echinochloa crus-galli); assay: Test A postemergence; settings: Echinochloa crus-galli, post-emergence, 240 h
In short: as §2

[11] = test system: giant foxtail (Setaria faberii); assay: Test A postemergence; settings: Setaria faberi, post-emergence, 240 h
In short: as §2

[12] = test system: Galium (catchweed bedstraw, Galium aparine); assay: Test A postemergence; settings: Galium, post-emergence, 240 h
In short: as §2

Kochia (Kochia scoparia) [13] = assay: Test A postemergence; settings: Bassia scoparia, post-emergence, 240 h
In short: as §2

[14] = test system: wheat (Triticum aestivum); assay: Test A postemergence; settings: Triticum aestivum, post-emergence, 240 h
In short: as §2

[15] = test system: blackgrass (Alopecurus myosuroides); assay: Test A postemergence; settings: Alopecurus myosuroides, post-emergence, 240 h
In short: as §2

[16] = test system: pigweed (Amaranthus retroflexus); assay: Test A postemergence; settings: Amaranthus retroflexus, post-emergence, 240 h
In short: as §2

[17] = test system: ragweed (common ragweed, Ambrosia elatior); assay: Test A postemergence; settings: Ambrosia artemisiifolia, post-emergence, 240 h
In short: as §2

corn (Zea mays) = assay: Test A postemergence; settings: Zea mays, post-emergence, 240 h
In short: as §2

[18] = test system: ryegrass, Italian (Italian ryegrass, Lolium multiflorum); assay: Test A postemergence; settings: Lolium multiflorum, post-emergence, 240 h
In short: as §2

[19] = 125 g ai/ha, preemergence, approx. 10 d

CN1C[C@H](c2cccc(C(F)(F)F)c2)[C@@H](C(=O)Nc2cnccc2C(F)(F)F)C1=O [Compound 1066]
pest or weed control at 250 g/ha [1]: 45% | pest or weed control at 250 g/ha [2]: 0% | pest or weed control at 250 g/ha (rice (Oryra sativa)): 0% | pest or weed control at 250 g/ha [3]: 75% | pest or weed control at 31 g/ha ([4]; 31 g ai/ha, 0 to 100 scale where 0 is no effect and 100 is complete control, read-out: Barnyardgrass plant response rating): 50% | pest or weed control at 125 g/ha ([4]; 125 g ai/ha, visual injury rating after approximately 10 d, read-out: Barnyardgrass plant response rating (0 to 100 scale, 0 is no effect, 100 is complete control)): 100% | pest or weed control at 31 g/ha ([5]; 31 g ai/ha, 0 to 100 scale where 0 is no effect and 100 is complete control, read-out: Foxtail, Giant plant response rating): 100% | pest or weed control at 125 g/ha ([5]; 125 g ai/ha, visual injury rating after approximately 10 d, read-out: Foxtail, Giant plant response rating (0 to 100 scale, 0 is no effect, 100 is complete control)): 100% | pest or weed control at 31 g/ha (Kochia (Kochia scoparia) [6]; 31 g ai/ha, Preemergence): 0% | pest or weed control at 125 g/ha (Kochia (Kochia scoparia) [6]; [19]): 20% | pest or weed control at 31 g/ha ([7]; 31 g ai/ha, Preemergence): 0% | pest or weed control at 125 g/ha [7, 19]: 20% | pest or weed control at 31 g/ha ([8]; 31 g ai/ha, Preemergence): 0% | pest or weed control at 125 g/ha [8, 19]: 0% | pest or weed control at 31 g/ha ([9]; 31 g ai/ha, Preemergence): 20% | pest or weed control at 125 g/ha [9, 19]: 50% | pest or weed control at 125 g/ha ([10]; 125 g ai/ha, postemergence, visual injury on 0 to 100 scale (0 no effect, 100 complete control), approx. 10 d, read-out: Barnyardgrass plant response rating): 70% | pest or weed control at 31 g/ha ([10]; Postemergence, 31 g ai/ha, visual injury after approx. 10 d, 0 to 100 scale, 0 no effect, 100 complete control, read-out: Plant response rating, Barnyardgrass): 50% | pest or weed control at 125 g/ha ([11]; 125 g ai/ha, postemergence, visual injury on 0 to 100 scale (0 no effect, 100 complete control), approx. 10 d, read-out: Foxtail, Giant plant response rating): 90% | pest or weed control at 31 g/ha ([11]; Postemergence, 31 g ai/ha, visual injury after approx. 10 d, 0 to 100 scale, 0 no effect, 100 complete control, read-out: Plant response rating, Foxtail, Giant): 70% | pest or weed control at 125 g/ha ([12]; 125 g ai/ha, postemergence, visual injury on 0 to 100 scale (0 no effect, 100 complete control), approx. 10 d, read-out: Galium plant response rating): 50% | pest or weed control at 31 g/ha ([12]; Postemergence, 31 g ai/ha, visual injury after approx. 10 d, 0 to 100 scale, 0 no effect, 100 complete control, read-out: Plant response rating, Galium): 0% | pest or weed control at 125 g/ha (Kochia (Kochia scoparia) [13]; 125 g ai/ha, postemergence, visual injury on 0 to 100 scale (0 no effect, 100 complete control), approx. 10 d, read-out: Kochia plant response rating): 0% | pest or weed control at 31 g/ha (Kochia (Kochia scoparia) [13]; Postemergence, 31 g ai/ha, visual injury after approx. 10 d, 0 to 100 scale, 0 no effect, 100 complete control, read-out: Plant response rating, Kochia): 0% | plant injury at 125 g/ha ([14]; 125 g ai/ha, postemergence, visual injury on 0 to 100 scale (0 no effect, 100 complete control), approx. 10 d, read-out: Wheat plant response rating): 50% | plant injury at 31 g/ha ([14]; Postemergence, 31 g ai/ha, visual injury after approx. 10 d, 0 to 100 scale, 0 no effect, 100 complete control, read-out: Plant response rating, Wheat): 0% | pest or weed control at 125 g/ha ([15]; 125 g ai/ha, postemergence, visual injury on 0 to 100 scale (0 no effect, 100 complete control), approx. 10 d, read-out: Blackgrass plant response rating): 60% | pest or weed control at 31 g/ha ([15]; Postemergence, 31 g ai/ha, visual injury after approx. 10 d, 0 to 100 scale, 0 no effect, 100 complete control, read-out: Plant response rating, Blackgrass): 0% | pest or weed control at 125 g/ha ([16]; 125 g ai/ha, postemergence, visual injury on 0 to 100 scale (0 no effect, 100 complete control), approx. 10 d, read-out: Pigweed plant response rating): 0% | pest or weed control at 31 g/ha ([16]; Postemergence, 31 g ai/ha, visual injury after approx. 10 d, 0 to 100 scale, 0 no effect, 100 complete control, read-out: Plant response rating, Pigweed): 0% | pest or weed control at 125 g/ha ([17]; 125 g ai/ha, postemergence, visual injury on 0 to 100 scale (0 no effect, 100 complete control), approx. 10 d, read-out: Ragweed plant response rating): 0% | pest or weed control at 31 g/ha ([17]; Postemergence, 31 g ai/ha, visual injury after approx. 10 d, 0 to 100 scale, 0 no effect, 100 complete control, read-out: Plant response rating, Ragweed): 0% | plant injury at 125 g/ha (corn (Zea mays); 125 g ai/ha, postemergence, visual injury on 0 to 100 scale (0 no effect, 100 complete control), approx. 10 d, read-out: Corn plant response rating): 40% | Corn plant response rating (crop injury, 0 = no effect, 100 = complete kill) at 31 g/ha (corn (Zea mays); Postemergence, 31 g ai/ha, visual injury after approx. 10 d, 0 to 100 scale, 0 no effect, 100 complete control): 0% | pest or weed control at 125 g/ha ([18]; 125 g ai/ha, postemergence, visual injury on 0 to 100 scale (0 no effect, 100 complete control), approx. 10 d, read-out: Ryegrass, Italian plant response rating): 30% | pest or weed control at 31 g/ha ([18]; Postemergence, 31 g ai/ha, visual injury after approx. 10 d, 0 to 100 scale, 0 no effect, 100 complete control, read-out: Plant response rating, Ryegrass, Italian): 30%
